Measured values published in US9089569B2, “1,2,6-substituted benzimidazoles as flap modulators” (JANSSEN PHARMACEUTICA NV, priority 2013, dated 2015).
pIC50, pKi: −log10 of the molar value. Structures can show the parent of a compound that is named as a salt.

Experiments:
[1] = system: leukotriene pathway in human whole blood (LTB4); test: Human whole blood assay (LTB4, A23187-stimulated); format: cell-based; details: human whole blood diluted 1:1, calcium ionophore A23187 stimulation, LTB4 levels
Protocol: An in vitro cellular assay was performed using human whole blood collected in heparin-containing tubes, which was used to test the ability of compounds to modulate the leukotriene pathway in human whole blood. The blood was diluted 1:1 in RPMI medium, pre-incubated for 15 min at 37° Celsius with test compounds at various concentrations, and then stimulated with calcium ionophore, A23187 (7 μg/mL), for 30 min at 37° Celsius. The samples were then centrifuged and plasma was removed. The plasma was diluted in assay buffer and LTB4 levels were measured using a commercial kit (Enzo Life Sciences). The concentration of each compound that was required for half-maximal inhibition (modulation) of […] (IC50) was calculated by a 4-parameter equation using the program GraphPad Prism (GraphPad software). For analysis, data are imported into 3DX and aggregated as the average of duplicates of the calculated ratios in order to calculate Ki and IC50 values. Numbers in parentheses are the number of runs for the assay.

[2] = target: human FLAP (Homo sapiens (Human), UniProt P20292); test: FLAP binding assay (HTRF); details: wild type FLAP-containing membranes, HTRF format
Sequence of human FLAP (P20292 whole entry): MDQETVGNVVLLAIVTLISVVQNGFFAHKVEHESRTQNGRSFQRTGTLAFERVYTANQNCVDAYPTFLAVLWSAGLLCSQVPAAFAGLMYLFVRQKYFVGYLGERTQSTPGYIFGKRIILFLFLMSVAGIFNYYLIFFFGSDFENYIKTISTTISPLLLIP
Protocol: The assay below is used to test the modulatory activity of compounds against FLAP. Human and mouse FLAP-encoding DNA was amplified by polymerase chain reaction and cloned into pFastBac1 (Invitrogen) with a NH2-terminal 6-His tag for expression in Spodoptera frugiperda (Sf-9) cells. FLAP-containing membranes were prepared as was a FITC-labeled FLAP modulator (3-(3-(tert-butylthio)-1-(4-chlorobenzyl)-5-(quinolin-2-ylmethoxy)-1H-indol-2-yl)-2,2-dimethylpropanoic acid). The FLAP binding assay is performed in HTRF format (homogeneous time resolved fluorescence). […] The reaction is allowed to proceed for two hours after which the plate is read on an Envision plate reader in HTRF mode. Data are expressed as a HTRF ratio.
For human FLAP binding assays, data are analyzed with 3DX Explorer software. […] For analysis, data from multiple runs are averaged and each compound may be tested in 2 to 20 runs. Each run comprises two plates and each plate includes duplicates. Data from each plate is averaged and data are imported into 3DX. The data from multiple runs are aggregated as the average of duplicates of the calculated ratios in order to calculate Ki and IC50 values. Numbers in parentheses are the number of runs for the assay.

pIC50 [1]	Structure (SMILES)	other results
6.26	CCC(CC)(Cc1nc2ccc(OCc3ccn(C)n3)cc2n1Cc1ccc(-c2ccc(C(F)(F)F)cc2)cc1)C(=O)O [Example 188, 2-ethyl-2-((6-((1-methyl-1H-pyrazol-3-yl)methoxy)-1-((4′-(trifluoromethyl)-[1,1′-biphenyl]-4-yl)methyl)-1H-benzo[d]imidazol-2-yl)methyl)butanoic acid]	
5.45	Cn1ccc(COc2cc(F)c3nc(C4CCCC[C@@H]4C(=O)O)n(Cc4ccc(N5CC(F)(F)C5)cc4)c3c2)n1 (mixture of isomers) [Example 168, racemic cis-2-{1-[4-(3,3-Difluoroazetidin-1-yl)benzyl]-4-fluoro-6-[(1-methyl-1H-pyrazol-3-yl)methoxy]-1H-benzimidazol-2-yl}cyclohexanecarboxylic acid as the formate salt]	

Further lines, the molecule ahead of its results:

Structure (SMILES)	pIC50 [1]	other results
Cc1ccc(COc2ccc3nc([C@H]4CCCC[C@H]4C(=O)O)n(Cc4ccc(OC(F)(F)F)c(Cl)c4)c3c2)nc1 (racemic) [Example 32, racemic cis-2-{1-[3-Chloro-4-(trifluoromethoxy)benzyl]-6-[(5-methylpyridin-2-yl)methoxy]-1H-benzimidazol-2-yl}cyclohexanecarboxylic acid]	6.68	
Cn1ccc(COc2ccc3nc([C@@H]4CCCC[C@@H]4C(=O)O)n(Cc4ccc(OC(F)(F)F)cc4)c3c2)n1 (relative stereo) [Example 36, (1S*,2R*)-2-{6-[(1-Methyl-1H-pyrazol-3-yl)methoxy]-1-[4-(trifluoromethoxy)benzyl]-1H-benzimidazol-2-yl}cyclohexanecarboxylic acid]		pIC50 ([1]; Homo sapiens): 6.23
Cn1ccc(COc2cc3c(cc2F)nc([C@@H]2CCCC[C@@H]2C(=O)O)n3Cc2ccc(OC(F)(F)F)cc2F)n1 (racemic) [Example 90, racemic cis-2-{5-Fluoro-1-[2-fluoro-4-(trifluoromethoxy)benzyl]-6-[(1-methyl-1H-pyrazol-3-yl)methoxy]-1H-benzimidazol-2-yl}cyclohexanecarboxylic acid]		pKi [2]: 7.57
Cc1ccc(COc2ccc3nc([C@@H]4[C@H](C(=O)O)C4(C)C)n(Cc4ccc(OC(F)(F)F)cc4)c3c2)nc1 (racemic) [Example 25, racemic cis-2,2-Dimethyl-3-{6-[(5-methylpyridin-2-yl)methoxy]-1-[4-(trifluoromethoxy)benzyl]-1H-benzimidazol-2-yl}cyclopropanecarboxylic acid]	5.51	
Cn1ccc(COc2ccc3nc([C@@H]4CCCC[C@@H]4C(=O)O)n(Cc4ccc(OC(F)(F)F)cc4)c3c2)n1 (relative stereo) [Example 45, (1R*,2S*)-2-{6-[(1-Methyl-1H-pyrazol-3-yl)methoxy]-1-[4-(trifluoromethoxy)benzyl]-1H-benzimidazol-2-yl}cyclohexanecarboxylic acid]		pIC50 ([1]; Homo sapiens): < 5.00
